# Measured values published in patent US20240263163A1, “CELL-FREE REGIONS BY LABEL-FREE MAGNETIC EXCLUSION” (McMaster University, priority 2021, published 2024).
# Entries after “also recorded” stand apart in the source; their conditions may differ.
# Assays:
# HBEC3 KT cells [1] = experiment: cell-free area closure of annular monolayers formed by magnetic exclusion; assay type: cell-based, human; details: for closure rate of cell-free area: 0 h to 16 h, N=3
# Experimental: The cells were maintained at 37° C. and 5% CO2 in a humidified atmosphere.
# The magnetic exclusion technique was applied to form annular HBEC3 KT monolayers in which HBEC3 KT cells were trypsinized at ˜80% confluency. A 96-well flat-bottom TCT plate (IBIDI) was placed on an array of coaxially arranged ring and cylinder magnets (N52 grade, Zigmyster Magnets). The stock gadolinium-based paramagnetic solution (1 M) was diluted to 25×10^−3 M using the serum-free culture medium. A 250 μL suspension of ˜50,000 cells in 25×10^−3 M paramagnetic solution was added to the wells. After a 3 h incubation period (37° C. and 5% CO2 in a humidified atmosphere), the well plate was removed from the magnet array. The paramagnetic solution was removed, and the wells were washed twice with 200 μL culture medium. […] Tissue culture wells were plasma treated to enhance the attachment of the ECM proteins to the well surfaces. A 300 μL solution of collagen I (500 μg mL^−1) and fibronectin (12 μg mL^−1) was added to the wells. The well plate was incubated at 4° C. overnight, and subsequently, the coated wells were rinsed with phosphate-buffered saline (PBS). Annular HBEC3 KT monolayers were assembled magnetically on the coated surfaces. A fluorescent dye solution of 2 μM Calcein AM and Hoechst 33342 (2 drops per mL) was used to stain the monolayers. Brightfield and fluorescent images were taken using a 10× objective of an EVOS M7000 inverted microscope (ThermoFisher). Excitation/emission wavelengths of 470/525 nm and 357/447 nm were used for Calcein AM and Hoechst 33342, respectively.
# The experimental study also involved assessing annular HBEC3 KT monolayer formation by gravitational settling. Annular inserts were 3D printed with a Formlabs Form 2 printer using a clear resin (RS-F2-GPCL-04). The inserts were attached to the well surfaces of a 12-well plate using patterned double-sided silicone adhesive tapes. The well plates containing the inserts were sterilized with UV radiation. A 100 μL suspension of ˜50,000 HBEC3 KT cells in culture medium was added to the inserts. After a 3 h incubation period, the inserts were removed, and the wells were washed twice with 500 μL culture medium.
# Cell counting and geometric measurements were automatically determined in the experimental study from fluorescent images with ImageJ Fiji. The watershed segmentation algorithm (Process—Binary—Watershed) was used to distinguish cells in high cell density regions. The brightfield image contrast was adjusted using the Enhance Local Contrast (CLAHE) ImageJ plugin to measure the cell-free area. The Sobel edge detection algorithm (Process—Find edges) was used to highlight the boundaries of the monolayers. Next, image smoothing was performed using the Gaussian Blur filter (Process—Filter—Gaussian Blur). The cell-free areas were measured automatically after setting the image threshold. The equivalent diameters were calculated from the cell-free areas. The monolayer annulus width was determined by taking the average of the annulus widths measured at four orthogonal positions. The straight-line tool of ImageJ was used for the measurements.
# The cell-free area closure of the annular monolayers was also studied in the experiments. […] The annular monolayers were produced on TCT and collagen I-fibronectin coated well surfaces to investigate the influence of the underlying substrate on the closure rate.
# The initial boundary of the cell-free region is marked by a white dotted line (e.g., see FIG. 6A).
# The closure rates are calculated by measuring the differences between the mean initial and final cell-free areas at 0 h and 16 h.
# HBEC3 KT cells [2] = experiment: live/dead assay (NucBlue Live / NucGreen Dead); assay type: cell-based
# Experimental: The experimental study also involved performing live/dead assays. A 400 μL suspension of ˜5000 HBEC3 KT cells in 25×10^−3 M paramagnetic solution was added to the wells of a 48-well TCT plate. After a 3 h incubation period, the paramagnetic solution was replaced with the culture medium. As controls, an equal number of cells were seeded into wells containing only the culture medium. The cell viability was assessed using the NucBlue Live and NucGreen Dead nuclear acid stains (ReadyProbes, ThermoFisher). Fluorescent images were taken at 24, 48, 96, and 144 h. Excitation/emission wavelengths of 357/447 nm and 470/525 nm were used for NucBlue and NucGreen, respectively. The quantification of live and dead cells was performed using ImageJ Fiji.
# In the experimental study, all statistical tests were performed using the GraphPad Prism software (version 9.0.0). Two-way ANOVA with Bonferroni post hoc tests were performed to assess the effect of residual Gd^3+ on cell viability and metabolism over time. […] A p-value<0.05 was considered statistically significant. […]
# (§1) The effect of the residual Gd^3+ on cell viability was assessed at 24, 48, 96, and 144 h using a live/dead assay. […] Cell metabolism, which is an indicator of viability, was also measured using a resazurin-based assay (Presto Blue HS). The increase in the fluorescence intensity values over time indicates cell proliferation.
# cells = details: concentration of 25 mM; cited from earlier work
# HBEC3 KT cells [3] = experiment: resazurin-based metabolism assay (Presto Blue HS); assay type: cell-based; details: 25×10^−3 M paramagnetic solution 3 h, then 24, 48, 96 and 144 h
# Experimental: The experimental study also involved performing a metabolism assay. A 250 μL suspension of ˜4000 HBEC3 KT cells in 25×10^−3 M paramagnetic solution was added to the wells of a 96-well plate. Following a 3 h incubation period, the paramagnetic solution was replaced with the culture medium. An equal number of cells suspended in the culture medium were added to the wells as controls. A resazurin-based assay (Presto Blue HS, ThermoFisher) was used to analyze cell metabolism at 24, 48, 96, and 144 h. The fluorescence intensity was measured at multiple spots within each well using excitation/emission wavelengths of 560/590 nm (SpectraMax i3, Molecular Devices). Blank wells containing only culture medium were used to account for background fluorescence. The average fluorescence intensity of the blanks was subtracted from the average fluorescence value obtained from each well of the Gadolinium and control groups.
# In the experimental study, all statistical tests were performed using the GraphPad Prism software (version 9.0.0). […]
# as §1
# HBEC3 KT cells [4] = experiment: transcriptome analysis (Clariom S microarray); assay type: cell-based, human; details: 25×10^−3 M paramagnetic solution 3 h, RNA after 24 h, 21,448 genes, fold-change cutoff 2, FDR p<0.05, N=4
# Experimental: The experimental study also involved performing transcriptome analysis. A 1.5 mL suspension of ˜500,000 HBEC3 KT cells in 25×10^−3 M paramagnetic solution was added to the wells of a 12-well TCT plate. Following a 3 h incubation period, the paramagnetic solution was replaced with the culture medium. After 24 h, total RNA was isolated and purified using RNeasy Mini Kit (Qiagen) as per the manufacturer's protocol. The RNA concentration and purity were measured using a spectrophotometer (NanoDrop, ThermoFisher). Transcriptome analysis was performed using Clariom S microarray gene chips (ThermoFisher).
# In the experimental study, all statistical tests were performed using the GraphPad Prism software (version 9.0.0). Two-way ANOVA with Bonferroni post hoc tests were performed to assess the effect of residual Gd^3+ on cell viability and metabolism over time. […] A p-value<0.05 was considered statistically significant. The statistical evaluation of the microarray datasets was performed using the transcriptome analysis console (TAC) software (ThermoFisher). The raw gene expression data were normalized using the signal space transformation-robust multiarray analysis (SST-RMA) algorithm^57. A fold-change cutoff value of 2 was used to identify the differentially expressed genes^42. […]
# HBEC3 KT cells [5] = experiment: reaction-diffusion (FKPP/Porous-Fisher) numerical model and logistic growth fit of cell-free area closure; set-up: species or system human; details: for growth rate λ: from logistic growth equation, U at 16 h and U0; for D0 / D1 / m: Replicate 1
# Experimental: Numerical model: The Fisher—Kolmogorov—Petrovsky—Piskunov (FKPP) reaction-diffusion equation is routinely used to model the closure of rectangular cell-free areas in scratch-based assays^27,47,48. The FKPP equation consists of a diffusion term that describes cell migration and a source term representing cell proliferation. The one-dimensional axisymmetric form of the FKPP equation is given by equation (6):^49
# where U denotes the cell density (cells mm^−2) and D the cell diffusivity (mm^2 h^−1). The source term consists of a logistic growth function G=λ(1−U/K) with growth rate λ(h^−1) and carrying capacity K (cells mm^−2)^47. The carrying capacity is the maximum density for a cell monolayer when contact inhibition reduces the net cell proliferation to zero^47. The classical FKPP model assumes a constant cell diffusivity D=D0, where D0 is the diffusivity for isolated cells^27,47. In contrast, the Porous-Fisher model, which is an extension of the FKPP model, uses a diffusivity function D=D0(U/K)^m that increases with cell density (m>0), where D0 denotes the maximum diffusivity^47,50.
# Besides cell migration, cell proliferation leads to the closure of cell-free areas. To determine […], a logistic growth equation^51 was used as shown in equations 7 and 8:
# where U0 denotes the initial cell density. The maximum cell density determined by counting cells in the confluent regions of annular HBEC 3KT monolayers gives K=1690 cells mm^−2, which is consistent with the previously reported values^28,52. Experimentally derived values of U at 16 h and U0 were used to calculate λ from Equation 8.
# Brightfield images of the annular monolayers were taken every 2 h over 16 h to track the closures of the cell-free areas on TCT surfaces. Consistent with the monolayer geometry, circular tracks of ˜0.14 mm width were superimposed on the brightfield images to manually count the cells within the domain 0≤r≤Rmax. The total number of cells counted in each track was divided by the respective annulus area to generate experimental cell density datasets. In the cell density plots, each track was represented by the radial distance of its midpoint from the center of the annular monolayer.
# The finite volume method (FVM) with a time marching scheme was used to discretize and predict cell density (Up) values from Equation 6. A linear combination of the classical FKPP and Porous-Fisher diffusivity functions were used, i.e., D=D0+D1(U/K)^m, to model the spatiotemporal change in cell density on the TCT surfaces. The combined diffusivity function was previously used to fit cell density profiles of scratch assays with rectangular cell-free areas^50. A zero net flux boundary condition was imposed at both r=0 and r=Rmax^28,50.
# As the cell density decreases at the boundary Rmax, the zero net flux condition applied at this boundary is an approximation. A Genetic Algorithm (GA)-based error minimization approach was implemented to minimize the root mean squared error (RMSE) between Up and the experimental (Uexp) cell density values^53 as shown in equation 9.
# The cell density was measured at 15 locations within 0≤r≤Rmax and the index i denotes the location number. The index j indicates timepoints, where j=1, 2, 3 and 4 corresponds to t=4, 8, 12 and 16 h. […] The limits for D0 are 0≤D0≤0.004 mm^2 h^−1, where D0=0.004 mm^2 h^−1 is the maximum isolated-cell diffusivity value reported in the literature^28,50.
# The experimentally obtained cell-free area closure rates were approximately two orders higher than the maximum value of D0(Section 2.3). […] The exponent m determines whether the diffusivity D changes linearly or non-linearly with a change in cell density. However, the biological meaning of m is not yet fully understood^47. Here, the limits 0≤m≤4 are considered, where m=4 is the highest value reported in the literature^28,50. The experimentally derived values of λ are used in the model. […]
# [6] = EGF 0.16 ng mL^−1, TCT surfaces
# [7] = EGF 0.80 ng mL^−1, TCT surfaces
compound,measurement,setting,value
[Gd+3] [Gd^3+],effect on closure of magnetically assembled monolayers,"HBEC3 KT cells [1]; vs gravity-assisted monolayers, no EGF, 0 and 16 h, TCT surfaces",insignificant
same,effect on cell viability (viable cell counts),"HBEC3 KT cells [2]; 25×10^−3 M paramagnetic solution 3 h, then 24, 48, 96 and 144 h, vs control",insignificant
same,toxicity to the cells,"HBEC3 KT cells [2]; live/dead and metabolism assays, residual Gd^3+",not toxic
same,effect on cell viability,cells,does not affect cell viability
same,cell metabolism (fluorescence intensity) vs control,HBEC3 KT cells [3],No significant difference
same,differential gene expression / impact on transcriptional profiles,HBEC3 KT cells [4],no statistically significant differentially expressed genes; also recorded: statistically insignificant
epidermal growth factor [EGF],closure rate of cell-free area,"HBEC3 KT cells [1]; TCT surfaces, 0.16 ng mL^−1 EGF",~0.56±0.05 mm^2 h^−1
same,closure rate of cell-free area,"HBEC3 KT cells [1]; TCT surfaces, 0.8 ng mL^−1 EGF",~0.58±0.01 mm^2 h^−1
same,closure rate of cell-free area,"HBEC3 KT cells [1]; collagen I-fibronectin surfaces, 0.16 ng mL^−1 EGF",~0.61±0.01 mm^2 h^−1
same,closure rate of cell-free area,"HBEC3 KT cells [1]; collagen I-fibronectin surfaces, 0.8 ng mL^−1 EGF",~0.62±0.02 mm^2 h^−1
same,change in cell-free areas,"HBEC3 KT cells [1]; collagen I-fibronectin surfaces, 0.8 ng mL^−1 EGF, at 4 h, in contrast to TCT surfaces",significant decrease
same,closure of cell-free regions,"HBEC3 KT cells [1]; collagen I-fibronectin surfaces, 0.8 ng mL^−1 EGF, at 16 h",near-complete closure
same,growth rate λ,HBEC3 KT cells [5]; 0.16 ng mL^−1 EGF,~0.03 h⁻¹
same,growth rate λ,HBEC3 KT cells [5]; 0.8 ng mL^−1 EGF,~0.03 h⁻¹
same,λ,HBEC3 KT cells [5]; EGF 0.16 ng mL^−1,2.91 h^−1 (×10^−2)
same,D0,HBEC3 KT cells [5]; [6],3.06 mm^2 h^−1 (×10^−3)
same,D1,HBEC3 KT cells [5]; [6],3.02 mm^2 h^−1
same,m,HBEC3 KT cells [5]; [6],1.97
same,"φ (dimensionless number, higher indicates faster closure)","HBEC3 KT cells [5]; EGF 0.16 ng mL^−1, tmax=24 h",3.23
same,λ,HBEC3 KT cells [5]; EGF 0.80 ng mL^−1,2.91 h^−1 (×10^−2)
same,D0,HBEC3 KT cells [5]; [7],3.91 mm^2 h^−1 (×10^−3)
same,D1,HBEC3 KT cells [5]; [7],3.75 mm^2 h^−1
same,m,HBEC3 KT cells [5]; [7],2.62
same,"φ (dimensionless number, higher indicates faster closure)","HBEC3 KT cells [5]; EGF 0.80 ng mL^−1, tmax=24 h",3.60
